Source: patent publication US8779154B2, “Fused ring compounds for inflammation and immune-related uses” (priority 2006, dated 2014)

Tested on: IL-2 production
Assay: Inhibition of IL-2 production in PHA-activated Jurkat cells (ELISA)
Format: cell-based
Details: Homo sapiens, Jurkat, 20 h, PHA 2.5 μg/mL, IL-2 ELISA
Procedure: Jurkat cells were placed in a 96 well plate (0.5 million cells per well in 1% FBS medium) then a test compound of this invention was added at different concentrations. After 10 minutes, the cells were activated with PHA (final concentration 2.5 μg/mL) and incubated for 20 hours at 37° C. under CO2. The final volume was 200 μL. Following incubation, the cells were centrifuged and the supernatants collected and stored at −70° C. prior to assaying for IL-2 production. A commercial ELISA kit (IL-2 Eli-pair, Diaclone Research, Besancon, France) was used to detect production of IL-2, from which dose response curves were obtained. The IC50 value was calculated as the concentration at which 50% of maximum IL-2 production after stimulation was inhibited versus a non-stimulation control.

IC50 [nM] | Compound
100 to 250 | O=C(Nc1c(F)cccc1F)c1nc2c(s1)-c1cc(-c3cn[nH]c3)ccc1CCC2 [Compound 128]
≤ 30 | Cn1cncc1-c1ccc2c(c1)-c1sc(C(=O)Nc3c(F)cccc3F)nc1CCC2 [Compound 129]
500 to 1000 | O=C(Nc1c(F)cccc1F)c1nc2c(s1)-c1cc(-c3cnc[nH]3)ccc1CCC2 [Compound 131]
30 to 100 | O=C(Nc1c(F)cccc1F)c1nc2c(s1)-c1nc(-c3cccnc3)sc1CCC2 [Compound 133]
> 1000 | CN1Cc2ccc(Br)cc2-c2sc(NC(=O)c3c(F)cccc3F)nc2C1=O [Compound 135]
> 1000 | O=C1NCc2ccc(Br)cc2-c2sc(NC(=O)c3c(F)cccc3F)nc21 [Compound 136]
> 1000 | CN1Cc2ccc(Br)cc2-c2sc(NCc3c(F)cccc3F)nc2C1 [Compound 137]
250 to 500 | CN1Cc2ccc(Br)cc2-c2sc(NC(=O)c3c(F)cccc3F)nc2C1 [Compound 138]
> 1000 | O=C1OCc2ccc(Br)cc2-c2sc(NC(=O)c3c(F)cccc3F)nc21 [Compound 139]
> 1000 | CN1Cc2ccc(Br)cc2-c2sc(C(=O)Nc3c(F)cccc3F)nc2C1=O [Compound 140]
100 to 250 | O=C(Nc1c(F)cccc1F)c1ccc2c(c1)CCCc1cnc(-c3cccnc3)nc1-2 [Compound 142]
100 to 250 | CCOC(=O)N(C(=O)c1nc2c(s1)-c1cc(OC)ccc1CCC2)c1c(F)cccc1F [Compound 143]
> 1000 | COc1ccc2c(c1)-c1sc(/C(=N/c3c(F)cccc3F)SC)nc1CCC2 [Compound 144]
> 1000 | C/N=C(/Nc1c(F)cccc1F)c1nc2c(s1)-c1cc(OC)ccc1CCC2 [Compound 145]
500 to 1000 | COc1ccc2c(c1)-c1sc(/C(=N\O)Nc3c(F)cccc3F)nc1CCC2 [Compound 147]
30 to 100 | Fc1cccc(F)c1NC(=S)c1nc2c(s1)-c1cc(-c3cnco3)ccc1CCC2 [Compound 148]
100 to 250 | CC/N=C(/Nc1c(F)cccc1F)c1nc2c(s1)-c1cc(OC)ccc1CCC2 [Compound 149]
500 to 1000 | COc1ccc2c(c1)-c1sc(C(=N)Nc3c(F)cccc3F)nc1CCC2 [Compound 152]
250 to 500 | N=C(Nc1c(F)cccc1F)c1nc2c(s1)-c1cc(-c3cnco3)ccc1CCC2 [Compound 153]
500 to 1000 | COc1ccc2c(c1)-c1sc(NC(=O)Nc3c(F)cccc3F)nc1CCC2 [Compound 154]
30 to 100 | O=C(Nc1ccc2c(c1)CCCc1sc(-c3cccnc3)nc1-2)c1c(F)cccc1F [Compound 155]
